Experimental data taken from patent publication US8946225B2, “Derivatives of 2H pyridazin-3-ones, their preparation and their use as SCD-1 inhibitors” (Pierre Fabre Medicament, priority 2009, dated 2015).

What was measured:
[1] = biological target: T1, SCD-1 (Homo sapiens, UniProt O00767); experiment: Human enzymatic activity of SCD-1 from microsomes of HepG2 cells (conversion of [14C] stearic acid to oleic acid, HPLC); type: biochemical; conditions: microsomal fraction of HepG2 cells, 62 μM stearic acid, 20 minutes at 37° C., vs vehicle 0.1% DMSO; read-out: HSCD-1 (HEPG2) IC50
T1 construct: addition of 125 μg of microsomal fraction of HepG2 cells; host or cells: HepG2 human hepatocarcinoma cells (microsomal fraction)
T1 sequence (O00767 1-359): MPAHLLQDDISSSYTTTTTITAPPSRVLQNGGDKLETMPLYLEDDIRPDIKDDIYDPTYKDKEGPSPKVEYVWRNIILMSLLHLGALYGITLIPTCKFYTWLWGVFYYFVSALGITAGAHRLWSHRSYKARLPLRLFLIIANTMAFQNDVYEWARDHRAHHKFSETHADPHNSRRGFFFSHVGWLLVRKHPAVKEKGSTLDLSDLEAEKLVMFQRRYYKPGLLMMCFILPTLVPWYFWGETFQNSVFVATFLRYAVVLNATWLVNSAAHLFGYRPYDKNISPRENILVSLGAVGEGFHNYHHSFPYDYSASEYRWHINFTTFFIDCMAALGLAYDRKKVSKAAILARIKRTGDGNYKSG
Description: In vitro: Human enzymatic activity of SCD-1 from microsomes of HepG2 cells after treatment with the inhibitor compounds (% inhibition).
HepG2 cells of human hepatocarcinoma (ATCC, HB-8065) are cultured at confluence then trypsinated. The cell residue is solubilized in 10 mM Tris buffer (pH 7.4) sucrose (250 mM) DTT (1 mM) then the cells are lysed by sonication. The microsomes are obtained after centrifuging at 10,000 g for 20 minutes at 4° C. followed by centifrugation of the supernatant at 100,000 g for 60 minutes at 4° C. The residue is solubilized in 10 mM Tris buffer (pH 7.4) sucrose (250 mM) at 4° C. and the microsomal proteins are assayed and stored at −196° C. (liquid nitrogen).
The enzymatic reaction measures the conversion of stearic acid (C18:0 fatty acid) into oleic acid (C18:1 fatty acid) by SCD-1. The enzymatic reaction is initiated by the addition of 125 μg of microsomal fraction of HepG2 cells to tubes (total reaction volume of 500 μl) containing 62 μM stearic acid (45 μM stearic acid and 17 μM [^14C] stearic acid) in 100 mM phosphate buffer (pH 7.16) with 7.2 mM ATP, 0.54 mM CoA, 6 mM MgCl2, 0.8 mM NADH and the inhibitor compound or vehicle (0.1% DMSO). The tubes are incubated for 20 minutes at 37° C. then the enzymatic reaction is halted by the addition of KOH (12%) and saponification for 30 minutes at 80° C. After acidification (3N HCl), the fatty acids are extracted twice with ethyl ether, evaporated under nitrogen before being solubilized in methanol/dichloromethane (3:1). The reaction product (C18:1) is separated from the reaction substrate (C18:0) by HPLC (Perkin Elmer, C18 reverse phase column) coupled with an in-line radioactivity detector (FlowOne). Enzymatic activity is measured in picomoles of stearic acid converted to oleic acid per minute and per mg of protein. For each inhibitor compound, an IC50 value is determined, compared with the reference enzymatic activity (vehicle 0.1% DMSO). Sterculic acid is the reference inhibitor compound (Gomez F. E., Bauman D. E., Ntambi J. M., Fox B. G. Effects of sterculic acid on stearoyl-CoA desaturase in differentiating […] adipocytes. Biochem Biophys Res Commun. 300 316-326 (2003).

SMILES	IC50 [1]	melting point
Cn1nccc(NCC(=O)N2CCC(CNc3cc(C(F)(F)F)ccc3Cl)CC2)c1=O [Example 32, 4-(2-{4-[(2-Chloro-5-trifluoromethyl-phenylamino)-methyl]-piperidin-1-yl}-2-oxo-ethylamino)-2-methyl-2H-pyridazin-3-one]	300 to 1000 nM	64 °C
Cn1nccc(NCC(=O)N2CCC(Oc3cc(Cl)ccc3Cl)CC2)c1=O [Example 12, 4-{2-[4-(2,5-Dichloro-phenoxy)-piperidin-1-yl]-2-oxo-ethylamino}-2-methyl-2H-pyridazin-3-one]	30 to 100 nM	162 °C
Cn1nccc(NCC(=O)N2CCC(Oc3ccc(Cl)cc3Cl)CC2)c1=O [Example 11, 4-{2-[4-(2,4-Dichloro-phenoxy)-piperidin-1-yl]-2-oxo-ethylamino}-2-methyl-2H-pyridazin-3-one]	100 to 300 nM	152 °C
Cn1nccc(NC(=O)N2CCC(Oc3cc(F)c(F)cc3Br)CC2)c1=O [Example 71, 4-(2-bromo-4,5-difluoro-phenoxy)-piperidine-1-carboxylic acid (2-methyl-3-oxo-2,3-dihydro-pyridazin-4-yl)-amide]	10 to 100 nM	143 °C
Cn1nccc(NCC(=O)N2CCC(Oc3ccc(Cl)c(Cl)c3)CC2)c1=O [Example 10, 4-{2-[4-(3,4-Dichloro-phenoxy)-piperidin-1-yl]-2-oxo-ethylamino}-2-methyl-2H-pyridazin-3-one]	300 to 1000 nM	169 °C
COc1cnn(C)c(=O)c1NCC(=O)N1CCC(Oc2cc(C(F)(F)F)ccc2Cl)CC1 [Example 51, 4-{2-[4-(2-Chloro-5-trifluoromethyl-phenoxy)-piperidin-1-yl]-2-oxo-ethylamino}-5-methoxy-2-methyl-2H-pyridazin-3-one]	100 to 1000 nM	60 °C
Cn1nccc(NCC(=O)N2CCC(CNc3ccccc3C(F)(F)F)CC2)c1=O [Example 31, 2-Methyl-4-(2-oxo-2-{4-[(2-trifluoromethyl-phenylamino)-methyl]-piperidin-1-yl}-ethylamino)-2H-pyridazin-3-one]	~300 nM	182 °C
Cn1nccc(NC(=O)N2CCC(Oc3cc(F)ccc3Cl)CC2)c1=O [Example 53, 4-(2-Chloro-5-fluoro-phenoxy)-piperidine-1-carboxylic acid (2-methyl-3-oxo-2,3-dihydro-pyridazin-4-yl)-amide]	30 to 100 nM	116 °C
Cc1ccc(C(C)C)cc1OC1CCN(C(=O)CNc2ccnn(C)c2=O)CC1 [Example 16, 4-{2-[4-(5-Isopropyl-2-methyl-phenoxy)-piperidin-1-yl]-2-oxo-ethylamino}-2-methyl-2H-pyridazin-3-one]	30 to 100 nM	159 °C
O=C(Nc1ccn[nH]c1=O)N1CCC(Oc2cc(C(F)(F)F)ccc2Cl)CC1 [Example 72, 4-(2-Chloro-5-trifluoromethyl-phenoxy)-piperidine-1-carboxylic acid (3-oxo-2,3-dihydro-pyridazin-4-yl)-amide]	10 nM	158 °C
Cn1nccc(NCC(=O)N2CCC(Oc3cc(C(F)(F)F)ccc3Cl)CC2)c1=O [Example 4, 4-{2-[4-(2-Chloro-5-trifluoromethyl-phenoxy)-piperidin-1-yl]-2-oxo-ethylamino}-2-methyl-2H-pyridazin-3-one]	10 to 100 nM	158 °C
Cn1nccc(NC(=O)N2CCC(Oc3cc(Cl)ccc3Cl)CC2)c1=O [Example 62, 4-(2,5-dichloro-phenoxy)-piperidine-1-carboxylic acid (2-methyl-3-oxo-2,3-dihydro-pyridazin-4-yl)-amide]	30 nM	125 °C
Cc1ccc(F)cc1OC1CCN(C(=O)CNc2ccnn(C)c2=O)CC1 [Example 14, 4-{2-[4-(5-Fluoro-2-methyl-phenoxy)-piperidin-1-yl]-2-oxo-ethylamino}-2-methyl-2H-pyridazin-3-one]	100 to 1000 nM	176 °C
Cn1nccc(NCC(=O)N2CCC(Oc3cc(F)ccc3Cl)CC2)c1=O [Example 8, 4-{2-[4-(2-Chloro-5-fluoro-phenoxy)-piperidin-1-yl]-2-oxo-ethylamino}-2-methyl-2H-pyridazin-3-one]	100 nM	159 °C
Cn1nccc(NCC(=O)N2CCC(Oc3ccccc3C(F)(F)F)CC2)c1=O [Example 1, 2-Methyl-4-{2-oxo-2-[4-(2-trifluoromethyl-phenoxy)-piperidin-1-yl]-ethylamino}-2H-pyridazin-3-one]	100 to 1000 nM	50 °C
Cn1nccc(NCC(=O)N2CCC(Oc3ccccc3Cl)CC2)c1=O [Example 7, 4-{2-[4-(2-Chloro-phenoxy)-piperidin-1-yl]-2-oxo-ethylamino}-2-methyl-2H-pyridazin-3-one]	100 to 1000 nM	142 °C
Cn1nccc(NC(=O)N2CCC(Oc3cc(F)ccc3F)CC2)c1=O [Example 69, 4-(2,5-difluoro-phenoxy)-piperidine-1-carboxylic acid (2-methyl-3-oxo-2,3-dihydro-pyridazin-4-yl)-amide]	100 to 1000 nM	138 °C
Cn1nccc(NCC(=O)N2CCC(COc3cc(C(F)(F)F)ccc3Cl)C2)c1=O (centres unmarked) [Example 34, 4-{2-[3-(2-Chloro-5-trifluoromethyl-phenoxymethyl)-pyrrolidin-1-yl]-2-oxo-ethylamino}-2-methyl-2H-pyridazin-3-one]	30 to 100 nM	183 °C
Cn1nccc(NC(=O)N2CCC(Oc3ccccc3Cl)CC2)c1=O [Example 64, 4-(2-chloro-phenoxy)-piperidine-1-carboxylic acid (2-methyl-3-oxo-2,3-dihydro-pyridazin-4-yl)-amide]	300 to 1000 nM	124 °C
Cn1nccc(NCC(=O)N2CCC(Oc3cc(Br)ccc3Cl)CC2)c1=O [Example 6, 4-{2-[4-(5-Bromo-2-chloro-phenoxy)-piperidin-1-yl]-2-oxo-ethylamino}-2-methyl-2H-pyridazin-3-one]	3 nM	160 °C
Cc1ccc(C(C)C)cc1OC1CCN(C(=O)Nc2ccnn(C)c2=O)CC1 [Example 57, 4-(2-methyl-5-isopropyl-phenoxy)-pipéridine-1-carboxylic acid (2-methyl-3-oxo-2,3-dihydro-pyridazin-4-yl)-amide]	10 to 100 nM	104 °C
Cn1nccc(NC(=O)N2CCC(Oc3cc(C(F)(F)F)ccc3F)CC2)c1=O [Example 54, 4-(2-fluoro-5-trifluoromethyl-phenoxy)-piperidine-1-carboxylic acid (2-methyl-3-oxo-2,3-dihydro-pyridazin-4-yl)-amide]	30 to 100 nM	102 °C
Cn1nccc(NC(=O)N2CCC(Oc3ccc(Cl)cc3Cl)CC2)c1=O [Example 66, 4-(2,4-dichloro-phenoxy)-piperidine-1-carboxylic acid (2-methyl-3-oxo-2,3-dihydro-pyridazin-4-yl)-amide]	100 to 1000 nM	140 °C
Cc1ccc(Cl)c(OC2CCN(C(=O)Nc3ccnn(C)c3=O)CC2)c1 [Example 56, 4-(2-chloro-5-methyl-phenoxy)-piperidine-1-carboxylic acid (2-methyl-3-oxo-2,3-dihydro-pyridazin-4-yl)-amide]	100 to 1000 nM	133 °C
Cn1nccc(NC(=O)N2CCC(Oc3cc(Cl)c(Cl)cc3Cl)CC2)c1=O [Example 70, 4-(2,4,5-trichloro-phenoxy)-piperidine-1-carboxylic acid (2-methyl-3-oxo-2,3-dihydro-pyridazin-4-yl)-amide]	100 to 1000 nM	154 °C
